From ChEMBL document CHEMBL3887009, “Substituted benzoxazoles” (2016)

Assay: Inhibition Assay: To determine the thrombin inhibition of the substances listed above, a biochemical test system is constructed in which the conversion of a thrombin substrate is used for determining the enzymatic activity of human thrombin. Here, thrombin cleaves aminomethylcoumarin, which is measured fluorescently, from the peptic substrate. The determinations are carried out in microtitre plates.Substances to be tested are dissolved in various concentrations in dimethyl sulphoxide and incubated for 15 min with human thrombin (0.06 nmol/l dissolved in 50 mmol/l of Tris buffer [C,C,C-tris(hydroxymethyl)aminomethane], 100 mmol/l of sodium chloride, 0.1% BSA [bovine serum albumin], pH 7.4) at 22° C. The substrate (5 umol/l Boc-Asp(OBzl)-Pro-Arg-AMC from Bachem) is then added. After 30 min of incubation, the sample is excited at a wavelength of 360 nm and the emission is measured at 460 nm. The measured emissions of the test batches with test substance are compared to the control batches without test substance (only dimethyl sulphoxide instead of test substance in dimethyl sulphoxide) and the IC50 values are calculated from the concentration/activity relationships.

IC50: 130 nM
SMILES: COc1cc(C(=O)N2CC(C)(CCO)OC[C@H]2C)cc2nc(N[C@H](CF)c3cccc(Cl)c3)oc12 (stereo partly specified)
